# Data as given in patent US20080039531A1, “Compositions, and kits comprising targeted aldehyde or acetal protease inhibitor compounds for treating muscle disorders” (priority 2005, published 2008).
# Where “and” joins values, the source holds several entries; their conditions need not be identical. Equal entries are not always repeated. Where two headings read alike, the source gives them in different places.
# Experiments:
# Duchenne patients = assay: Preliminary safety trial of oral leupeptin in DMD children; assay type: in vivo
# Description: Leupeptin's low toxicity, non-immunogenicity and stability profile have made it a potential drug for eventual human use. In this regard, a preliminary safety trial of leupeptin in seven Italian DMD children with ages varying from 7-10 was performed. The trial was approved by the Italian Ministry of Health and the leupeptin supplied by the Nippon Kayaku Co., Japan. […] During the process of muscle degeneration, muscle cells break open and their contents find their way into the bloodstream. […] CK levels can be slightly elevated (500 U/L) in some nerve disorders, or grossly elevated (5,000 to 15,000 U/L) in DMD or inflammatory myopathies. Importantly the significant decline in CK levels after treatment with leupeptin indicates a significant improvement (lessening of muscle breakdown) in these individuals, especially in the child given 100 mg twice daily.
# Calpain [1] = assay: Monkey study, oral leupeptin: muscle calpain activities; assay type: in vivo, monkeys
# Excerpt: However, the trend in activities, as was expected, when comparing control, left muscle to right, denervated, leupeptin-treated muscle, was an overall decrease in calpain activity after leupeptin treatment. The mean decrease in calpain activity in the right opponens pollicis muscles of leupeptin treated animals was 30%. The mean decrease in calpain activity in the right abductor pollicis muscles of leupeptin-treated animals was 24%.
# calpain [2] = assay: Calpain activities of muscle samples from leupeptin-treated MDX mice; assay type: in vivo, mouse; settings: for Calpain activities of muscle samples, Anterior tibialis / Calpain activities of muscle samples, Diaphragm / Calpain activities of muscle samples, Gastrocnemius / Calpain activities of muscle samples, Soleus: mdx mice, average of 3 determinations
# Description: It is well documented that as, observed in DMD and BMD, dystrophin is dysfunctional/absent in the murine MDX model of muscular dystrophy. […] A series of studies to test the ability of the calpain inhibitor, leupeptin, to delay and/or prevent features of calcium-induced damage to dystrophic myofibers was initiated. Control C57BL/10SNJ mice were treated with intramuscular injections of normal saline. The MDX mice were treated intramuscularly with either normal saline or 12 mg/kg leupeptin or 18 mg/kg leupeptin twice daily. All injections were delivered in the hind-limbs in various locations to avoid muscle damage due to repeated injections at the same location. The gastrocnemius, soleus, anterior tibialis, and diaphragm muscles were examined in all animals.
# To further examine whether the beneficial/protective action of leupeptin was associated with a change in calpain activity, the activity of the enzyme was assessed in the muscle various muscles taken from the control, and MDX […]±treatment with leupeptin.
# [3] = Monkey study, intramuscular leupeptin: toxicology and echocardiograms; assay type: in vivo, Cebus apella
# Description: In order to test the hypothesis that in vivo inhibition of calpains by leupeptin can facilitate neuromuscular recovery by inhibiting denervation atrophy of the skeletal-muscle target after complete peripheral nerve transection and delayed nerve repair (7), a monkey study (Cebus apella) was undertaken. This median-nerve model was chosen to approximate human anatomic and regenerative aspects.
# Complete blood counts and clotting times after intramuscular leupeptin administration at 18 mg/kg, twice daily for 24 weeks, were not affected in treated animals, when compared to controls. In controls, mean values were as follows: WBC=4.83±1.04×10^3; RBC=5.34±0.34×10^6; hematocrit=37.97%±2.09; platelets=3.30±0.05×10^5; prothrombin time=9.68±0.36 sec; partial thromboplastin time=28.78±1.32 sec. In treated animals, mean values were: WBC=6.67±2.26×10^3; RBC=5.55±0.26×10^6; hematocrit=38.18%+1.69; platelets 4.33±0.18×10^5; prothrombin time=10.88±0.49 sec; partial thromboplastin time=33.06±0.76 sec.
# Echocardiograms: To assure that leupeptin was causing no pathological effects on heart muscle, the cardiac lateral wall and septum were measured in millimeters in all animals prior to leupeptin treatment and 25 weeks after delayed nerve repair. Prior to treatment, in animals designated as controls, the lateral wall was 2.88±0.33 mm and the septum was 2.84±0.2 mm. Twenty-five weeks later in control animals, the lateral wall was 3.0±0.5 mm and the septum was 2.9±0.2 mm. Prior to treatment, in animals designated to receive leupeptin, the lateral wall was 3.5±0.2 mm and the septum was 2.9±0.4 mm. Twenty-five weeks later, in leupeptin-treated animals, the lateral wall was 3.2±0.1 mm and the septum was 2.8±0.3 mm. Importantly, there were no significant statistical differences within either the control or treatment groups or between the control and treatment groups (data not shown).
# [4] = test system: rat hind limb muscle (sciatic nerve denervation); settings: for % loss (muscle atrophy due to denervation): rat
# Description: Denervation was carried out on one of the hind limb sciatic nerves of the rat. Denervation was allowed to proceed for 7 days. Either leupeptin or CLA was injected 2×/day in forelimb muscle for seven days. The non-denervated hind limb was used as the control. Leupeptin and/or CLA were injected into alternating forelimb muscles for a period of seven days after which, animals were sacrificed, muscles excised and weighed.
# [5] = leupeptin-treated monkeys, twenty-five weeks after delayed nerve repair
# [6] = monkeys, intramuscular leupeptin 18 mg/kg twice daily for 24 weeks
structure (smiles),measurement,setting,value
CC(=O)N[C@@H](CC(C)C)C(=O)N[C@@H](CC(C)C)C(=O)N[C@H](C=O)CCCNC(=N)N [Leupeptin],muscle function tests vs start of trial,"Duchenne patients; DMD children, at 6 months and one year",little decline in muscle strength
same,blood chemistries over the year,"Duchenne patients; DMD children, oral leupeptin for one year",no abnormalities
same,CREATINE KINASE After 1 yr.,"Duchenne patients; Duchenne patient, oral leupeptin 100 mg twice daily",375 Units/100 ml
same,CREATINE KINASE After 1 yr.,"Duchenne patients; Duchenne patients (one line per patient), oral leupeptin 50 mg twice daily","2,500 Units/100 ml (2×) and 4,100 Units/100 ml and 2,700 Units/100 ml and 3,300 Units/100 ml and 3,500 Units/100 ml"
same,tolerability / adverse effects,"Duchenne patients; in vivo, po",well tolerated
same,mean decrease in calpain activity,Calpain [1]; right abductor pollicis muscles of oral leupeptin-treated monkeys,24%
same,mean decrease in calpain activity,Calpain [1]; right opponens pollicis muscles of oral leupeptin treated monkeys,30%
same,decrease in calpain activity vs untreated MDX muscles,"calpain [2]; anterior tibialis, 12 mg/kg",50%
same,decrease in calpain activity vs untreated MDX muscles,"calpain [2]; anterior tibialis, 18 mg/kg",77%
same,decrease in calpain activity vs untreated MDX muscles,"calpain [2]; diaphragm, 12 mg/kg",51%
same,decrease in calpain activity vs untreated MDX muscles,"calpain [2]; diaphragm, 18 mg/kg",71%
same,decrease in calpain activity vs untreated MDX muscles,"calpain [2]; gastrocnemius, 12 mg/kg",84%
same,decrease in calpain activity vs untreated MDX muscles,"calpain [2]; gastrocnemius, 18 mg/kg",60%
same,"Calpain activities of muscle samples, Anterior tibialis",calpain [2]; 12 mg/kg leupeptin,155 ± 16 cpm/200-μg protein
same,"Calpain activities of muscle samples, Diaphragm",calpain [2]; 12 mg/kg leupeptin,26 ± 4 cpm/200-μg protein
same,"Calpain activities of muscle samples, Gastrocnemius",calpain [2]; 12 mg/kg leupeptin,27 ± 7 cpm/200-μg protein
same,"Calpain activities of muscle samples, Soleus",calpain [2]; 12 mg/kg leupeptin,187 ± 16 cpm/200-μg protein
same,"Calpain activities of muscle samples, Anterior tibialis",calpain [2]; 18 mg/kg leupeptin,71 ± 11 cpm/200-μg protein
same,"Calpain activities of muscle samples, Diaphragm",calpain [2]; 18 mg/kg leupeptin,17 ± 5 cpm/200-μg protein
same,"Calpain activities of muscle samples, Gastrocnemius",calpain [2]; 18 mg/kg leupeptin,67 ± 8 cpm/200-μg protein
same,"Calpain activities of muscle samples, Soleus",calpain [2]; 18 mg/kg leupeptin,102 ± 9 cpm/200-μg protein
same,decrease in calpain activity vs untreated MDX muscles,"calpain [2]; soleus, 12 mg/kg",44%
same,decrease in calpain activity vs untreated MDX muscles,"calpain [2]; soleus, 18 mg/kg",70%
same,cardiac lateral wall (echocardiogram),[3]; [5],3.2±0.1 mm
same,cardiac septum (echocardiogram),[3]; [5],2.8±0.3 mm
same,RBC,[3]; [6],5.55±0.26×10^6
same,WBC,[3]; [6],6.67±2.26×10^3
same,"blood chemistry analyses, treated vs control",[3]; [6],no significant differences between treated and control animals
same,hematocrit,[3]; [6],38.18%
same,partial thromboplastin time,[3]; [6],33.06 ± 0.76 s
same,platelets,[3]; [6],4.33±0.18×10^5
same,prothrombin time,[3]; [6],10.88 ± 0.49 s
same,% loss (muscle atrophy due to denervation),[4]; 1.5 mg/kg injected 2x/day for seven days,30.9 ± 4%
same,% loss (muscle atrophy due to denervation),[4]; 15.0 mg/kg injected 2x/day for seven days,2.6 ± 0.3%
same,health / toxic effect in denervation study,"[4]; rats, seven days of injections",remained healthy without any apparent negative toxic effect
